Legend:
Type in all cases: in vivo
[1] = system: Kochia (Kochia scoparia); assay: Test A preemergence; conditions: Bassia scoparia, pre-emergence, 240 h, 0 to 100 scale where 0 is no effect and 100 is complete control, read-out: Kochia plant response rating
Method in brief: (§1)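 Treatment is preemergence as a directed soil spray after planting, or postemergence at the one- to two-leaf stage, with test chemical in a non-phytotoxic solvent mixture plus surfactant. Plants stay in the greenhouse about 10 d before visual injury scoring on a 0 to 100 scale versus untreated controls.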

[2] = system: barnyardgrass (Echinochloa crus-galli); assay: Test A preemergence; conditions: Echinochloa crus-galli, pre-emergence, 240 h, Preemergence
Method in brief: as §1

[3] = system: giant foxtail (Setaria faberii); assay: Test A preemergence; conditions: Setaria faberi, pre-emergence, 240 h, Preemergence
Method in brief: as §1

[4] = system: pigweed (Amaranthus retroflexus); assay: Test A preemergence; conditions: Amaranthus retroflexus, pre-emergence, 240 h, 0 to 100 scale where 0 is no effect and 100 is complete control, read-out: Pigweed plant response rating
[5] = system: ragweed (common ragweed, Ambrosia elatior); assay: Test A preemergence; conditions: Ambrosia artemisiifolia, pre-emergence, 240 h, 0 to 100 scale where 0 is no effect and 100 is complete control, read-out: Ragweed plant response rating
Method in brief: as §1

[6] = system: ryegrass, Italian (Italian ryegrass, Lolium multiflorum); assay: Test A preemergence; conditions: Lolium multiflorum, pre-emergence, 240 h, 0 to 100 scale where 0 is no effect and 100 is complete control, read-out: Ryegrass, Italian plant response rating
Method in brief: as §1

[7] = system: Galium (catchweed bedstraw, Galium aparine); assay: Test A postemergence; conditions: Galium, post-emergence, 240 h
Method in brief: as §1

[8] = system: Kochia (Kochia scoparia); assay: Test A postemergence; conditions: Bassia scoparia, post-emergence, 240 h
Method in brief: as §1

[9] = system: barnyardgrass (Echinochloa crus-galli); assay: Test A postemergence; conditions: Echinochloa crus-galli, post-emergence, 240 h
Method in brief: as §1

[10] = system: blackgrass (Alopecurus myosuroides); assay: Test A postemergence; conditions: Alopecurus myosuroides, post-emergence, 240 h
Method in brief: as §1

[11] = system: corn (Zea mays); assay: Test A postemergence; conditions: Zea mays, post-emergence, 240 h
Method in brief: as §1

[12] = system: giant foxtail (Setaria faberii); assay: Test A postemergence; conditions: Setaria faberi, post-emergence, 240 h
Method in brief: as §1

[13] = system: pigweed (Amaranthus retroflexus); assay: Test A postemergence; conditions: Amaranthus retroflexus, post-emergence, 240 h
Method in brief: as §1

[14] = system: ragweed (common ragweed, Ambrosia elatior); assay: Test A postemergence; conditions: Ambrosia artemisiifolia, post-emergence, 240 h
Method in brief: as §1

[15] = system: ryegrass, Italian (Italian ryegrass, Lolium multiflorum); assay: Test A postemergence; conditions: Lolium multiflorum, post-emergence, 240 h
Method in brief: as §1

[16] = system: wheat (Triticum aestivum); assay: Test A postemergence; conditions: Triticum aestivum, post-emergence, 240 h
Method in brief: as §1

[17] = system: barnyardgrass (Echinochloa crus-galli); assay: Test B flooded paddy test; conditions: Echinochloa crus-galli, 250 g ai/ha, Flood; 0 to 100 scale where 0 is no effect and 100 is complete control; read-out: Barnyardgrass plant response rating
Method in brief: (§2)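 Rating scale 0–100 (visual, vs untreated controls) after a 13–15 d greenhouse period; application to the flood layer, 3 cm above soil and maintained; plants at 2-leaf stage when treated.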

[18] = system: ducksalad (Heteranthera limosa); assay: Test B flooded paddy test; conditions: Heteranthera limosa, 250 g ai/ha, Flood; 0 to 100 scale where 0 is no effect and 100 is complete control; read-out: Ducksalad plant response rating
Method in brief: as §2

[19] = system: rice (Oryra sativa); assay: Test B flooded paddy test; conditions: Oryza sativa, 250 g ai/ha, Flood; 0 to 100 scale where 0 is no effect and 100 is complete control; read-out: Rice plant response rating
Method in brief: as §2

[20] = system: sedge, umbrella (small-flower umbrella sedge, Cyperus difformis); assay: Test B flooded paddy test; conditions: Cyperus difformis, 250 g ai/ha, Flood; 0 to 100 scale where 0 is no effect and 100 is complete control; read-out: Sedge, Umbrella plant response rating
Method in brief: as §2

[21] = 125 g ai/ha, preemergence, approx. 10 d

Cc1ccncc1NC(=O)[C@H]1C(=O)N(C)C[C@@H]1c1ccc(C(F)(F)F)cc1 [Compound 1068]
0%: pest or weed control at 31 g/ha ([1]; 31 g ai/ha, Preemergence) | pest or weed control at 125 g/ha [1, 21] | pest or weed control at 31 g/ha ([2]; 31 g ai/ha, 0 to 100 scale where 0 is no effect and 100 is complete control, read-out: Barnyardgrass plant response rating) | pest or weed control at 125 g/ha ([2]; 125 g ai/ha, visual injury rating after approximately 10 d, read-out: Barnyardgrass plant response rating (0 to 100 scale, 0 is no effect, 100 is complete control)) | pest or weed control at 31 g/ha ([3]; 31 g ai/ha, 0 to 100 scale where 0 is no effect and 100 is complete control, read-out: Foxtail, Giant plant response rating) | pest or weed control at 125 g/ha ([3]; 125 g ai/ha, visual injury rating after approximately 10 d, read-out: Foxtail, Giant plant response rating (0 to 100 scale, 0 is no effect, 100 is complete control)) | pest or weed control at 31 g/ha ([4]; 31 g ai/ha, Preemergence) | pest or weed control at 125 g/ha [4, 21] | pest or weed control at 31 g/ha ([5]; 31 g ai/ha, Preemergence) | pest or weed control at 125 g/ha [5, 21] | pest or weed control at 31 g/ha ([6]; 31 g ai/ha, Preemergence) | pest or weed control at 125 g/ha [6, 21] | pest or weed control at 125 g/ha ([7]; 125 g ai/ha, postemergence, visual injury on 0 to 100 scale (0 no effect, 100 complete control), approx. 10 d, read-out: Galium plant response rating) | pest or weed control at 31 g/ha ([7]; Postemergence, 31 g ai/ha, visual injury after approx. 10 d, 0 to 100 scale, 0 no effect, 100 complete control, read-out: Plant response rating, Galium) | pest or weed control at 125 g/ha ([8]; 125 g ai/ha, postemergence, visual injury on 0 to 100 scale (0 no effect, 100 complete control), approx. 10 d, read-out: Kochia plant response rating) | pest or weed control at 31 g/ha ([8]; Postemergence, 31 g ai/ha, visual injury after approx. 10 d, 0 to 100 scale, 0 no effect, 100 complete control, read-out: Plant response rating, Kochia) | pest or weed control at 125 g/ha ([9]; 125 g ai/ha, postemergence, visual injury on 0 to 100 scale (0 no effect, 100 complete control), approx. 10 d, read-out: Barnyardgrass plant response rating) | pest or weed control at 31 g/ha ([9]; Postemergence, 31 g ai/ha, visual injury after approx. 10 d, 0 to 100 scale, 0 no effect, 100 complete control, read-out: Plant response rating, Barnyardgrass) | pest or weed control at 125 g/ha ([10]; 125 g ai/ha, postemergence, visual injury on 0 to 100 scale (0 no effect, 100 complete control), approx. 10 d, read-out: Blackgrass plant response rating) | pest or weed control at 31 g/ha ([10]; Postemergence, 31 g ai/ha, visual injury after approx. 10 d, 0 to 100 scale, 0 no effect, 100 complete control, read-out: Plant response rating, Blackgrass) | plant injury at 125 g/ha ([11]; 125 g ai/ha, postemergence, visual injury on 0 to 100 scale (0 no effect, 100 complete control), approx. 10 d, read-out: Corn plant response rating) | Corn plant response rating (crop injury, 0 = no effect, 100 = complete kill) at 31 g/ha ([11]; Postemergence, 31 g ai/ha, visual injury after approx. 10 d, 0 to 100 scale, 0 no effect, 100 complete control) | pest or weed control at 125 g/ha ([12]; 125 g ai/ha, postemergence, visual injury on 0 to 100 scale (0 no effect, 100 complete control), approx. 10 d, read-out: Foxtail, Giant plant response rating) | pest or weed control at 31 g/ha ([12]; Postemergence, 31 g ai/ha, visual injury after approx. 10 d, 0 to 100 scale, 0 no effect, 100 complete control, read-out: Plant response rating, Foxtail, Giant) | pest or weed control at 125 g/ha ([13]; 125 g ai/ha, postemergence, visual injury on 0 to 100 scale (0 no effect, 100 complete control), approx. 10 d, read-out: Pigweed plant response rating) | pest or weed control at 31 g/ha ([13]; Postemergence, 31 g ai/ha, visual injury after approx. 10 d, 0 to 100 scale, 0 no effect, 100 complete control, read-out: Plant response rating, Pigweed) | pest or weed control at 125 g/ha ([14]; 125 g ai/ha, postemergence, visual injury on 0 to 100 scale (0 no effect, 100 complete control), approx. 10 d, read-out: Ragweed plant response rating) | pest or weed control at 31 g/ha ([14]; Postemergence, 31 g ai/ha, visual injury after approx. 10 d, 0 to 100 scale, 0 no effect, 100 complete control, read-out: Plant response rating, Ragweed) | pest or weed control at 125 g/ha ([15]; 125 g ai/ha, postemergence, visual injury on 0 to 100 scale (0 no effect, 100 complete control), approx. 10 d, read-out: Ryegrass, Italian plant response rating) | pest or weed control at 31 g/ha ([15]; Postemergence, 31 g ai/ha, visual injury after approx. 10 d, 0 to 100 scale, 0 no effect, 100 complete control, read-out: Plant response rating, Ryegrass, Italian) | plant injury at 125 g/ha ([16]; 125 g ai/ha, postemergence, visual injury on 0 to 100 scale (0 no effect, 100 complete control), approx. 10 d, read-out: Wheat plant response rating) | plant injury at 31 g/ha ([16]; Postemergence, 31 g ai/ha, visual injury after approx. 10 d, 0 to 100 scale, 0 no effect, 100 complete control, read-out: Plant response rating, Wheat) | pest or weed control at 250 g/ha [17] | pest or weed control at 250 g/ha [19] | pest or weed control at 250 g/ha [20]
90%: pest or weed control at 250 g/ha [18]
